Measurements from PMC11280027, “Conquering the beyond Rule of Five Space with an Optimized High-Throughput Caco-2 Assay to Close Gaps in Absorption Prediction” (Pharmaceutics, 2024).

System: not listed separately
Assay: Bidirectional transport study with assay-ready Caco-2 cells, 7-day versus 21-day cultivation (Figure S2)
Settings: human, Caco-2, pH 7.4

| Structure (SMILES) | efflux ratio at 60 min |
| --- | --- |
| O=C(O)c1cc(/N=N/c2ccc(S(=O)(=O)Nc3ccccn3)cc2)ccc1O [Sulfasalazine] | > 2 |
| COc1cc2nc(N3CCN(C(=O)c4ccco4)CC3)nc(N)c2cc1OC [Prazosin] | > 2 |
| CN/C(=N/CCSCc1nc[nH]c1C)NC#N [Cimetidine] | > 2 |

System: Caco-2 cells
Assay: as above
Settings: Caco-2 cells maintained 7 days on transwell plates; ER = Papp,BA/Papp,AB

| Structure (SMILES) | efflux ratio (ER) |
| --- | --- |
| C[C@]12CC[C@@H]3c4ccc(OS(=O)(=O)O)cc4CC[C@H]3[C@@H]1CCC2=O [Compound E3S, estrone-3-sulfate] | > 2 |

Same assay, conditions: Caco-2 cells maintained 21 days on transwell plates; ER = Papp,BA/Papp,AB

| Structure (SMILES) | efflux ratio (ER) |
| --- | --- |
| O=C(O)c1cc(/N=N/c2ccc(S(=O)(=O)Nc3ccccn3)cc2)ccc1O [Sulfasalazine] | > 2 |
| COc1cc2nc(N3CCN(C(=O)c4ccco4)CC3)nc(N)c2cc1OC [Prazosin] | > 2 |
| C[C@]12CC[C@@H]3c4ccc(OS(=O)(=O)O)cc4CC[C@H]3[C@@H]1CCC2=O [Compound E3S, estrone-3-sulfate] | > 2 |
| CN/C(=N/CCSCc1nc[nH]c1C)NC#N [Cimetidine] | > 2 |

System: not given
Assay: not given
Settings: human fraction absorbed; rounded to two significant figures; ref [17]; cited from earlier work

| Structure (SMILES) | Observed Human fa |
| --- | --- |
| CN(Cc1cnc2nc(N)nc(N)c2n1)c1ccc(C(=O)N[C@@H](CCC(=O)O)C(=O)O)cc1 [Methotrexate] | 0.64 |
| O=C1NC(=O)C(c2ccccc2)(c2ccccc2)N1 [Phenytoin] | 0.93 |
| Cc1cccc(C)c1OCC(C)N (stereo not shown) [Mexiletine] | 0.99 |
| CCN(CC)CCNC(=O)c1cc(Cl)c(N)cc1OC [Metoclopramide] | 0.89 |
| O=C(O)Cc1ccccc1Nc1c(Cl)cccc1Cl [Diclofenac] | 0.97 |
| CCOC(=O)C1=C[C@@H](OC(CC)CC)[C@H](NC(C)=O)[C@@H](N)C1 [Oseltamivir] | 0.75 |
| CNC(=O)Oc1ccc2c(c1)[C@]1(C)CCN(C)[C@@H]1N2C [Physostigmine] | 0.050 |
| O=C(O)c1cc(/N=N/c2ccc(S(=O)(=O)Nc3ccccn3)cc2)ccc1O [Sulfasalazine] | 0.33 |
| COCCOC(=O)C1=C(C)NC(C)=C(C(=O)OC(C)C)C1c1cccc([N+](=O)[O-])c1 (stereo not shown) [Nimodipine] | 1.0 |
| NS(=O)(=O)c1cc(C(=O)O)c(NCc2ccco2)cc1Cl [Furosemide] | 0.61 |
| Nc1nnc(-c2cccc(Cl)c2Cl)c(N)n1 [Lamotrigine] | 0.98 |
| CNC(=C[N+](=O)[O-])NCCSCc1ccc(CN(C)C)o1 [Ranitidine] | 0.56 |
| COc1ccc(C(CN(C)C)C2(O)CCCCC2)cc1 (stereo not shown) [Venlafaxine] | 0.96 |
| CC(C)(C)NC(=O)N[C@H](C(=O)N1C[C@H]2[C@@H]([C@H]1C(=O)NC(CC1CCC1)C(=O)C(N)=O)C2(C)C)C(C)(C)C (stereo partly shown) [Boceprevir] | 0.92 |
| CC(C)(C)NC(=O)[C@@H]1CN(Cc2cccnc2)CCN1C[C@@H](O)C[C@@H](Cc1ccccc1)C(=O)N[C@H]1c2ccccc2C[C@H]1O [Indinavir] | 0.63 |
| CCN(CCO)CCCC(C)Nc1ccnc2cc(Cl)ccc12 (stereo not shown) [Hydroxychloroquine] | 0.90 |
| C[C@]12C[C@H](O)[C@H]3[C@@H](CCC4=CC(=O)CC[C@@]43C)[C@@H]1CC[C@@H]2C(=O)CO [Corticosterone] | 1.0 |
| COc1ccc2c(c1)C(=O)N(CCc1ccc(S(=O)(=O)NC(=O)NC3CCCCC3)cc1)C(=O)C2(C)C [Gliquidone] | 0.95 |
| Nc1ccc(/N=N/c2ccccc2)c(N)n1 [Phenazopyridine] | 0.90 |
| CC(C)c1nc(N(C)S(C)(=O)=O)nc(-c2ccc(F)cc2)c1/C=C/[C@@H](O)C[C@@H](O)CC(=O)O [Rosuvastatin] | 0.35 |
| CC(C)CN(C[C@@H](O)[C@H](Cc1ccccc1)NC(=O)O[C@H]1CCOC1)S(=O)(=O)c1ccc(N)cc1 [Amprenavir] | 0.76 |
| CN1CCC[C@H]1c1cccnc1 [Nicotine] | 1.0 |
| CN(CCOc1ccc(CC2SC(=O)NC2=O)cc1)c1ccccn1 (stereo not shown) [Rosiglitazone] | 1.0 |
| Cc1cc(=O)n(-c2ccccc2)n1C [Antipyrine] | 0.98 |

| Structure (SMILES) | Observed Human fa |
| --- | --- |
| C#CCN(C)[C@H](C)Cc1ccccc1 [Selegiline] | 1.0 |
| CNCCC=C1c2ccccc2CCc2ccccc21 [Nortriptyline] | 1.0 |
| CO[C@H]1/C=C/O[C@@]2(C)Oc3c(C)c(O)c4c(c3C2=O)C2=NC3(CCN(CC(C)C)CC3)NC2=C(NC(=O)/C(C)=C\C=C\[C@H](C)[C@H](O)[C@@H](C)[C@@H](O)[C@@H](C)[C@H](OC(C)=O)[C@@H]1C)C4=O [Rifabutin] | 0.53 |
| O=C(O)COCCN1CCN(C(c2ccccc2)c2ccc(Cl)cc2)CC1 (stereo not shown) [Cetirizine] | 0.73 |
| CNS(=O)(=O)Cc1ccc2[nH]cc(CCN(C)C)c2c1 [Sumatriptan] | 0.58 |
| CN(C)CCC=C1c2ccccc2COc2ccccc21 [Doxepin] | 0.76 |
| N=C(N)NC(=O)c1nc(Cl)c(N)nc1N [Amiloride] | 0.53 |
| CCCc1nc2c(C)cc(-c3nc4ccccc4n3C)cc2n1Cc1ccc(-c2ccccc2C(=O)O)cc1 [Telmisartan] | 0.82 |
| CC[C@H]1OC(=O)[C@H](C)[C@@H](O[C@H]2C[C@@](C)(OC)[C@@H](O)[C@H](C)O2)[C@H](C)[C@@H](O[C@@H]2O[C@H](C)C[C@H](N(C)C)[C@H]2O)[C@](C)(O)C[C@@H](C)CN(C)[C@H](C)[C@@H](O)[C@]1(C)O [Azithromycin] | 0.43 |
| CNS(=O)(=O)CCc1ccc2[nH]cc(C3CCN(C)CC3)c2c1 [Naratriptan] | 0.70 |
| CC[C@H]1OC(=O)[C@H](C)[C@@H](O[C@H]2C[C@@](C)(OC)[C@@H](O)[C@H](C)O2)[C@H](C)[C@@H](O[C@@H]2O[C@H](C)C[C@H](N(C)C)[C@H]2O)[C@](C)(O)C[C@@H](C)/C(=N\OCOCCOC)[C@H](C)[C@@H](O)[C@]1(C)O [Roxithromycin] | 0.86 |
| CN(C)CCc1c[nH]c2ccc(Cn3cncn3)cc12 [Rizatriptan] | 0.90 |
| OCCN(CCO)c1nc(N2CCCCC2)c2nc(N(CCO)CCO)nc(N3CCCCC3)c2n1 [Dipyridamole] | 0.56 |
| Nc1cccc2c1CN(C1CCC(=O)NC1=O)C2=O (stereo not shown) [Lenalidomide] | 0.90 |
| O=C(NCCN1CCOCC1)c1ccc(Cl)cc1 [Moclobemide] | 0.85 |
| COc1ccccc1Oc1c(NS(=O)(=O)c2ccc(C(C)(C)C)cc2)nc(-c2ncccn2)nc1OCCO [Bosentan] | 0.70 |
| O=c1n(CCCN2CCN(c3cccc(Cl)c3)CC2)nc2ccccn12 [Trazodone] | 0.98 |
| OC(CCN1CCCCC1)(c1ccccc1)C1CCCCC1 (stereo not shown) [Trihexyphenidyl] | 1.0 |
| Cc1nccn1CC1CCc2c(c3ccccc3n2C)C1=O (stereo not shown) [Ondansetron] | 1.0 |
| O=C1Cc2cc(CCN3CCN(c4nsc5ccccc45)CC3)c(Cl)cc2N1 [Ziprasidone] | 0.63 |
| CN(C)CCc1c[nH]c2ccc(C[C@H]3COC(=O)N3)cc12 [Zolmitriptan] | 0.92 |
| CCOC(=O)N1CCC(=C2c3ccc(Cl)cc3CCc3cccnc32)CC1 [Loratadine] | 0.90 |
| CC(=O)N1CCN(c2ccc(OCC3COC(Cn4ccnc4)(c4ccc(Cl)cc4Cl)O3)cc2)CC1 (stereo not shown) [Ketoconazole] | 0.76 |
